Where “and” joins values, the source holds several entries; their conditions need not be identical. Equal values may be shown once. Read-outs that look alike come from different tables or passages of the source.
Legend:
[1] = target: T1, phosphorylated VEGF-R2Δ50 (Homo sapiens, UniProt P35968, DEL940-989/E990V); experiment: VEGF-R2 ELISA assay; type: biochemical; conditions: * determined with ELISA assay, read-out: FLVK-P Ki
T1 construct: VEGF-R2Δ50 contains residues 806-939 and 990-1171; made in house; host or cells: baculovirus/insect cells
From the text: VEGF-R2 Construct for Assay: This construct determines the ability of a test compound to inhibit tyrosine kinase activity. A construct (VEGF-R2Δ50) of the cytosolic domain of human vascular endothelial growth factor receptor 2 (VEGF-R2) lacking the 50 central residues of the 68 residues of the kinase insert domain was expressed in a baculovirus/insect cell system. Of the 1356 residues of full-length VEGF-R2, VEGF-R2Δ50 contains residues 806-939 and 990-1171, and also one point mutation (E990V) within the kinase insert domain relative to wild-type VEGF-R2. Autophosphorylation of the purified construct was performed by incubation of the enzyme at a concentration of 4 μM in the presence of 3 mM ATP and 40 mM MgCl2 in 100 mM Hepes, pH 7.5, containing 5% glycerol and 5 mM DTT, at 4° C. for 2 h. […] See Parast et al., Biochemistry, 37, 16788-16801 (1998).
Formation of phosphogastrin was monitored using biotinylated gastrin peptide (1-17) as substrate. Biotinylated phosphogastrin was immobilized using streptavidin coated 96-well microtiter plates followed by detection using anti-phosphotyrosine-antibody conjugated to horseradish peroxidase. The activity of horseradish peroxidase was monitored using 2,2′-azino-di-[3-ethylbenzathiazoline sulfonate(6)]diammonium salt (ABTS). Typical assay solutions contained: 2 μM biotinylated gastrin peptide; 5 mM DTT; 20 μM ATP; 26 mM MgCl2; and 2 mM MnCl2 in 200 mM Hepes, pH 7.5. The assay was initiated with 0.8 nM of phosphorylated VEGF-R2Δ50. Horseradish peroxidase activity was assayed using ABTS, 10 mM. The horseradish peroxidase reaction was quenched by addition of acid (H2SO4), followed by absorbance reading at 405 nm. Ki values were determined by measuring enzyme activity in the presence of varying concentrations of test compounds. The data were analyzed using Enzyme Kinetic and Kaleidagraph software.

CHK1 = target: T2, CHK1 (Homo sapiens, UniProt O14757); experiment: CHK1 high-throughput screening; type: biochemical; conditions: for % inhibition @ 20 μM: Table 4, repeated entries per example; for inhibition at 20 µM: read-out: % inhibition @ 20 μM, Table 4, repeated entries per example
T2 sequence (O14757 1-476): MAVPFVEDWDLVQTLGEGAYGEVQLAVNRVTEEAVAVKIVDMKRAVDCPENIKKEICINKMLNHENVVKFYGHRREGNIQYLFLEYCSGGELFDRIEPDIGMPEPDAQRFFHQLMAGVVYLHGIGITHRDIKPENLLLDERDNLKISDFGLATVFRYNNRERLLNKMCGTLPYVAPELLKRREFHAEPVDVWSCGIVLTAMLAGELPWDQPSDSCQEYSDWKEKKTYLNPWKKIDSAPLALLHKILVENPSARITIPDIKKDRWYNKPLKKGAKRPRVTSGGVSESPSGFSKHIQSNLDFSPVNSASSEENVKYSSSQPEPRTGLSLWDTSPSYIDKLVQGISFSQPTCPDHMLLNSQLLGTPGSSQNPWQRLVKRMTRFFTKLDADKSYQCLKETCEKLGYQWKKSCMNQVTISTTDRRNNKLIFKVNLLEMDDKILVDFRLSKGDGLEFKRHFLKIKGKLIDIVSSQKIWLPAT

CDK4/Cyclin D3 complex = target: T3, CDK4/Cyclin D3 complex (Homo sapiens, UniProt P11802); experiment: CDK4/Cyclin D assay; type: biochemical; conditions: for CDK4 % inhibition @ 10: at 10 (head μM)
T3 construct: made in house; host or cells: insect cells co-infected with baculovirus vectors
Summary of the method: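 Insect-cell-expressed CDK4/cyclin D3 (50 nM) phosphorylating His-tagged Rb fragment (residues 386-928) with 25 μM [^32P]ATP in HEPES pH 7.4, MgCl2, 2% DMSO; 20 min at 30 °C, EDTA stop. Filter-captured 32P by phosphorimager; apparent Ki from competitive or tight-binding inhibition fits.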

CDK2/Cyclin A complex = CDK2/Cyclin A complex (Homo sapiens, UniProt P24941); experiment: CDK2/Cyclin A assay; type: biochemical; conditions: for CDK2 % inhibition @ 10: at 10 (head μM)
Summary of the method: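 Radiometric assay: 150 nM CDK2/cyclin A (insect-cell CDK2, truncated cyclin A) phosphorylates His-tagged Rb fragment (residues 386-928) with 25 μM ATP plus [32P]ATP, pH 7.4 HEPES, 2% DMSO, 30 °C for 20 min. Filter-captured product counted by phosphorimager; apparent Ki from competitive or tight-binding inhibition fits.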

[2] = target: T4, phosphorylated VEGF-R2Δ50 (FLVK-P) (Homo sapiens, UniProt P35968, DEL940-989/E990V); experiment: VEGF-R2 coupled spectrophotometric (FLVK-P) assay; type: biochemical; conditions: spectrophotometric assay
T4 construct: VEGF-R2Δ50 contains residues 806-939 and 990-1171; made in house; host or cells: baculovirus/insect cells
Summary of the method: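 Baculovirus-expressed human VEGF-R2Δ50 (residues 806-939/990-1171, E990V) was autophosphorylated with 3 mM ATP, 40 mM MgCl2 for 2 h at 4° C. ADP formation was coupled via PK/LDH to NADH oxidation, read at 340 nm, with 5.1 mM poly(E4Y1), 1 mM ATP, 25 mM MgCl2, Hepes pH 7.5. Ki came from activity across compound concentrations.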

FL-CHK1 = target: T5, FL-CHK1 (Homo sapiens, UniProt O14757); experiment: CHK1 assay; type: biochemical; conditions: Table 2; at 5 (head μM)
T5 construct: C-terminally His-tagged full-length human CHK1 (FL-CHK1); 6xHis (C); made in house; host or cells: baculovirus/insect cells
T5 sequence (O14757 1-476): T2 sequence (O14757 1-476)
Summary of the method: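 Full-length human CHK1 with C-terminal 6×His tag, made in baculovirus/insect cells, 10 nM, phosphorylating 0.125 mM Syntide-2 with 0.15 mM ATP in 50 mM Tris pH 7.5, 25 mM MgCl2, 400 mM NaCl. PK/LDH-coupled NADH oxidation read at 340 nm. Ki from initial rates over varied compound concentrations.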

[3] = target: T6, unphosphorylated VEGF-R2Δ50 (FLVK) (Homo sapiens, UniProt P35968, DEL940-989/E990V); experiment: VEGF-R2 coupled spectrophotometric assay, unphosphorylated enzyme (FLVK); type: biochemical; conditions: Table 1
T6 construct: VEGF-R2Δ50 contains residues 806-939 and 990-1171; made in house; host or cells: baculovirus/insect cells
Summary of the method: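 Unphosphorylated VEGF-R2Δ50 (5 to 40 nM) with 20 mM poly(E4Y1), 3 mM ATP, 60 mM MgCl2, 2 mM MnCl2 in 200 mM Hepes pH 7.5. ADP production coupled via PK/LDH to NADH oxidation, read at 340 nm. Ki from activity at varying compound concentrations.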

T1 sequence (P35968 with tags, fused parts or gaps DEL940-989/E990V limits assumed): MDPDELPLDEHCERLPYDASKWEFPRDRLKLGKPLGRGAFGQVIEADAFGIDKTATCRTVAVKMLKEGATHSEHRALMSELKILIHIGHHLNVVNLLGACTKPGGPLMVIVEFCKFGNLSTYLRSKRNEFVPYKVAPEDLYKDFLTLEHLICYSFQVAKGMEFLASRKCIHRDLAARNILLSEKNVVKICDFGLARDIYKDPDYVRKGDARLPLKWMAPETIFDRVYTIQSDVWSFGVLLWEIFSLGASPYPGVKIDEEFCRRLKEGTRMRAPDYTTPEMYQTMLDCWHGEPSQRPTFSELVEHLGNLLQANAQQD
T3 sequence (P11802 whole entry): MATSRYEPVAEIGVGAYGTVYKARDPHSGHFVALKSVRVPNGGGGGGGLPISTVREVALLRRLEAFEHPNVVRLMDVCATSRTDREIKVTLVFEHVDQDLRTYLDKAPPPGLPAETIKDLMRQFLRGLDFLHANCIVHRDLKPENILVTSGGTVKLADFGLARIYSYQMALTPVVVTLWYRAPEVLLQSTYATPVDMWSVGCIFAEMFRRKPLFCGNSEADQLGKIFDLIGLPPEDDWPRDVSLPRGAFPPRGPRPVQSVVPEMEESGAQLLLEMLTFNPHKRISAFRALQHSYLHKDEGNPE
T3 sequence (P30281 whole entry partner): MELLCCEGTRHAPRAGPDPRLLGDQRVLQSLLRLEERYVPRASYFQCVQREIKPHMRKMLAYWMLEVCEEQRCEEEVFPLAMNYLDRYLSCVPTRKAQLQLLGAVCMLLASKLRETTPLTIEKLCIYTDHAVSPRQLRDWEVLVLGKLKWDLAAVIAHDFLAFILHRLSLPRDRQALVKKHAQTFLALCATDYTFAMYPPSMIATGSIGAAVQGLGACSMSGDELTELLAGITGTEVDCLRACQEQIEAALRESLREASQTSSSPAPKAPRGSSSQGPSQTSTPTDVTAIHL
T4 sequence (P35968 with tags, fused parts or gaps DEL940-989/E990V limits assumed): as the sequence (P35968 with tags, fused parts or gaps DEL940-989/E990V limits assumed) above
T6 sequence (P35968 with tags, fused parts or gaps DEL940-989/E990V limits assumed): as above

Row | Ki ([1]; Table 2) | % inhibition @ 20 μM (CHK1) | Ki (CDK4/Cyclin D3 complex; Table 2) | melting point | Ki (CDK2/Cyclin A complex; Table 2) | Structure (SMILES) | further results
1 | 1400 nM | 49.8% | 4600 nM | 233 to 235 °C (dec.) | – | Nc1nc(Nc2ccc(S(N)(=O)=O)cc2)sc1-c1nc(-c2ccccc2)cs1 [A(1), 4-(4′-Amino-4-phenyl-[2,5′]bithiazolyl-2′-ylamino)-benzenesulfonamide] | inhibition at 20 µM (CHK1): 36.6%
2 | 2900 nM | 2.6% and 7.6% | 7300 nM | 195 to 198 °C | 1800 nM | COc1ccc(-c2csc(-c3sc(Nc4ccc(S(N)(=O)=O)cc4)nc3N)n2)cc1 [A(2), 4-[4′-Amino-4-(4-methoxy-phenyl)-[2,5′]bithiazolyl-2′-ylamino]-benzenesulfonamide] | –
3 | – | – | – | 233 to 238 °C | – | Nc1nc(Nc2ccc(S(N)(=O)=O)cc2)sc1-c1nc(-c2ccc(F)cc2F)cs1 [A(4), 4-[4′-Amino-4-(2,4-difluoro-phenyl)-[2,5′]bithiazolyl-2′-ylamino]-benzenesulfonamide] | CDK4 % inhibition @ 10 (CDK4/Cyclin D3 complex; Table 2): 42% @; CDK2 % inhibition @ 10 (CDK2/Cyclin A complex; Table 2): 57% @
4 | – | – | – | 254 to 257 °C | – | Nc1nc(Nc2ccc(S(N)(=O)=O)cc2)sc1-c1nc(-c2ccc(F)cc2)cs1 [A(5), 4-[4′-Amino-4-(4-fluoro-phenyl)-[2,5′]bithiazolyl-2′-ylamino]-benzenesulfonamide] | CDK4 % inhibition @ 10 (CDK4/Cyclin D3 complex; Table 2): 30% @; CDK2 % inhibition @ 10 (CDK2/Cyclin A complex; Table 2): 27% @
5 | – | – | – | 173 to 175 °C (dec.) | – | Nc1nc(Nc2ccc(S(N)(=O)=O)cc2)sc1-c1nc(-c2ccc(Cl)cc2Cl)cs1 [A(6), 4-[4′-Amino-4-(2,4-dichloro-phenyl)-[2,5′]bithiazolyl-2′-ylamino]-benzenesulfonamide] | CDK4 % inhibition @ 10 (CDK4/Cyclin D3 complex; Table 2): 54% @; CDK2 % inhibition @ 10 (CDK2/Cyclin A complex; Table 2): 36% @
6 | – | – | – | 208 to 212 °C | – | Cc1c(F)cc(-c2csc(-c3sc(Nc4ccc(S(N)(=O)=O)cc4)nc3N)n2)cc1Cl [A(7), 4-[4′-Amino-4-(3-chloro-5-fluoro-4-methyl-phenyl)-[2,5′]bithiazolyl-2′-ylamino]-benzenesulfonamide] | CDK4 % inhibition @ 10 (CDK4/Cyclin D3 complex; Table 2): 28% @; CDK2 % inhibition @ 10 (CDK2/Cyclin A complex; Table 2): 25% @
7 | 1900 nM | – | 7000 nM | 145 to 148 °C (dec.) | 3100 nM | Cc1sc(-c2sc(Nc3ccc(S(N)(=O)=O)cc3)nc2N)nc1-c1ccc(F)cc1 [A(14), 4-[4′-Amino-4-(4-fluoro-phenyl)-5-methyl-[2,5′]bithiazolyl-2′-ylamino]-benzenesulfonamide] | –
8 | 22 nM | – | 980 nM | 205 to 209 °C (dec.) | 220 nM | Nc1nc(Nc2ccc(S(N)(=O)=O)cc2)sc1-c1nc(-c2cccc(O)c2)cs1 [A(16), 4-[4′-Amino-4-(3-hydroxy-phenyl)-[2,5′]bithiazolyl-2′-ylamino]-benzenesulfonamide] | inhibition at 20 µM (CHK1): 35.4%
9 | – | – | – | 235 to 238 °C | – | COc1cc(Nc2nc(N)c(-c3nc(-c4ccc(Cl)c(O)c4)cs3)s2)cc(OC)c1OC [A(22), 5-[4′-Amino-2′-(3,4,5-trimethoxy-phenylamino)-[2,5′]bithiazolyl-4-yl]-2-chloro-phenol] | inhibition at 20 µM (CHK1): 7.5%; Ki ([2]; Table 2): 21 nM; CHK-1 % inhibition @ 5 (FL-CHK1): 54% @
10 | 131000 nM | 9.3% and 0.4% | 24000 nM | 225 to 230 °C (dec.) | 13000 nM | Nc1nc(Nc2ccc(S(N)(=O)=O)cc2)sc1-c1nc(-c2cc(-c3ccc(Cl)cc3Cl)co2)cs1 [A(28), 4-{4′-Amino-4-[4-(2,4-dichloro-phenyl)-furan-2-yl]-[2,5′]bithiazolyl-2′-ylamino}-benzenesulfonamide] | –
11 | – | 3.8% and 5.4% and 9.8% | 20000 nM | 140 to 143 °C (dec.) | 2000 nM | Nc1nc(Nc2ccc(S(N)(=O)=O)cc2)sc1-c1nc(/C=C/c2ccccc2)cs1 [A(63), 4-(4′-Amino-4-styryl-[2,5′]bithiazolyl-2′-ylamino)-benzenesulfonamide] | –
12 | – | 1.1% and 7.2% and 8.3% | – | 138 to 140 °C (dec.) | 520 nM | Nc1nc(Nc2ccc(S(N)(=O)=O)cc2)sc1-c1nc(/C=C/c2ccc(O)cc2)cs1 [A(64), 4-{4′-Amino-4-[2-(4-hydroxy-phenyl)-vinyl]-[2,5′]bithiazolyl-2′-ylamino}-benzenesulfonamide] | –
13 | – | – | – | 205 to 210 °C (dec.) | – | COc1cc(Nc2nc(N)c(-c3nc(-c4cccc(N)c4)cs3)s2)cc(OC)c1OC [C(1)] | Ki ([1]; Table 1): 300 nM
14 | – | – | – | 159 to 163 °C (dec.) | – | Nc1nc(N)c(-c2nc(-c3cccc(NC(=O)c4ccccc4)c3)cs2)s1 [E(2), N-[3-(2 ′,4′-Diamino-[2,5′]bithiazolyl-4-yl)-phenyl]benzamide] | Ki ([2]; Table 1): 390 nM; Ki [3]: 38 nM
15 | – | – | – | 195 to 198 °C | – | CON(C)C(=O)c1csc(-c2sc(Nc3ccc(S(N)(=O)=O)cc3)nc2N)n1 [N(3), 4′-Amino-2′-(4-sulfamoyl-phenylamino)-[2,5′]bithiazolyl-4-carboxylic acid methoxy-methyl-amide] | Ki (CDK4/Cyclin D3 complex; Table 3): 1100 nM; Ki (CDK2/Cyclin A complex; Table 3): 100 nM
